The test system of this experiment is neonatal rat ventricular myocytes. In words: Cardiomyocyte hypertrophy (a-actinin staining, cell surface area) in cultured neonatal rat cardiomyocytes. The class given is cell-based. More on the design: dose or concentration left out as unconfirmed. Particulars: cells treated with the control siRNA; AdCnA infection or phenylephrine. On the procedure: Cardiomyocyte cultures and siRNA transfection. Neonatal rat ventricular myocytes were obtained as described previously in detail^6. Neonatal ventricular rat myocytes were obtained by enzymatic dissociation of 1-2 day old rat neonatal ventricles. Ventricles were stored in HEPES buffered DMEM (pH. 7.4) prior to multiple rounds of enzymatic digestion in DMEM nutrient mixture F-12 Ham base (Sigma) supplemented with 0.7 mg/ml collagenase type 2 (Invitrogen) and 1 mg/ml […] (Sigma). Cells were collected by centrifugation at 61×g for 10 min., resuspended in neonatal calf serum (Invitrogen) and stored in an incubator at 37° C. All cell suspensions were pooled, centrifuged at 61×g for 10 min. and resuspended in DMEM (Invitrogen) supplemented with 10% horse serum (Invitrogen) and 5% fetal calf serum (Invitrogen). […]
Immunocytochemistry and confocal microscopy. […] Cells were washed 3 times with PBS for 5 minutes, mounted with coverslips in 0.1 M Tris-HCl (pH 9.5)-glycerol (3:7) including 50 mg/ml n-propylgallate as anti-fading reagent, and analyzed by confocal microscopy using a Zeiss LSM 510 META instrument. […] Cell surface areas were determined using SPOT-imaging software (Diagnostic Instruments) on 80-100 GFP-positive cardiomyocytes in 10 to 20 fields in three independent experiments. […]

This note sets out measurements from patent US8367342B2, “Cardiac hypertrophy” (Lead Pharma Drug Development IP B.V., priority 2006, dated 2013).

The structures appear in SMILES notation.

For the molecule `CNC[C@H](O)c1cccc(O)c1` [PE, phenylephrine], the hypertrophy response entry was “robust hypertrophy response”.
